Source: US7943657B2, “Imidoalkanpercarboxylic acids” (Solvay Solexis S.p.A., priority 2002, dated 2011)

Tests used:
[1] = Phase separation and sedimentation of 5% aqueous PAP dispersion at rest in graduated cylinder; format: physicochemical; conditions: 5% by weight PAP dispersion, rest at room temperature
Description: In a beaker immersed in a thermostatic bath an aqueous dispersion of alpha crystalline PAP in demineralized water at 5% by weight of PAP is prepared, by adding to 473.5 ml of demineralized water at the temperature of 50° C., kept under stirring with an anchor and a magnetic stirrer, 500 ppm of antifoam DB 100 and 1,000 ppm of surfactant Hostapur® SAS and 26.50 g of crystalline PAP in alpha form, of technical degree (titre: 94.3%) having average sizes higher than 100 micron. After 10 minutes of stirring at 50° C., the beaker is removed from the thermostatic bath and the aqueous suspension is transferred in a graduated cylinder. It is let rest at room temperature in the graduated cylinder.
An aqueous dispersion of crystalline PAP in demineralized water at 5% by weight of PAP is prepared, as described in Example 2A, by adding to 471.9 ml of demineralized water 500 ppm of antifoam DB 100 and 1000 ppm of surfactant Hostapur® SAS and 28.1 g of crystalline PAP in beta form of technical degree (titre: 89%), having average sizes higher than 100 micron, in particular 80% of the particles being comprised between 100 and 200 micron. After 10 minutes of stirring at 50° C., the beaker is removed and the suspension is transferred into a graduated cylinder, as in Example 2A. […] The separation of the supernatant aqueous phase increases after 2 hours to more than 70% of the total volume.

[2] = Dissolution time of crystalline PAP dispersed in standard detergent solution (HPLC); format: physicochemical; conditions: listed as crystals of PAP in beta form
Description: Successive samples of liquid phase, carefully filtered on filter of 0.45 micron, are drawn and the PAP concentration in solution is determined by HPLC.
Said times are determined by drawing some curves reporting in ordinate the PAP concentration dissolved in the aqueous phase (determined by HPLC) and in abscissae the sample drawing time, taking as 100% the PAP concentration asymptotically obtained at infinite time.
The previous test is repeated by dispersing 70 mg of anhydrous crystalline PAP (base 100%), respectively of crystals and microcrystals (sizes lower than 10 micron) of PAP in beta form, obtained as from Examples 2B and 2A respectively, in one liter of aqueous solution, prepared as above, stirred and thermostated at the temperature of 25° C.
Successive samples of liquid phase, carefully filtered on filter of 0.45 micron, are drawn, and the PAP concentration in solution is determined by HPLC.

With O=C(CCCCCN1C(=O)c2ccccc2C1=O)OO [Example 2B, ε-phthalimido-peroxyhexanoic acid] the “separation of supernatant aqueous phase” value ([1]; after 10 minutes) was 60 % of the total volume, the “separation of supernatant aqueous phase” value ([1]; after 2 hours) was “more than 70 % of the total volume” and the “solid phase thickening / sedimentation on the cylinder bottom” value ([1]; 2A after two hours and 48 hours, 2B after 10 minutes) was “sedimentation of a precipitate on the bottom”. The “necessary time for the dissolution of 90% of the crystalline PAP initially dispersed” value ([2]; 70 mg PAP in 1 liter water 10° F. hardness + 1.70 g detergent IEC type B, 25° C.) was 60 min and the “necessary time for the dissolution of 90% of the crystalline PAP initially dispersed” value ([2]; 100 mg PAP in 1 liter water 10° F. hardness + 1.70 g detergent IEC type B, 40° C.) was 30 min.
